We go through eleven compounds from patent publication US4232013A, “16,17-Pyrazolino- and 16,17-isopyrazolino-1,4-pregnadiene derivatives” (Lark S.p.A., priority 1977, dated 1980).

Data set [1] can be described thus: thymolytic activity (topical administration). The format is in vivo, rat (adult female albino, Sprague-Dawley). The protocol: (§1) The topical anti-inflammatory activity of the new compounds of this invention was determined using the cotton granuloma assay. This test was performed according to C. A. Winter and C. C. Porter J. Am. Pharm. Ass. Sci., Ed. 46, 515. 1957 using adult female albino rats (Sprague-Dawley) average body weight 150 grams. 8 animals per group.
(§2) The method consists in the subcutaneous implantation in the dorsal region of 2 sterile cotton pelletts. The pellets employed were 5 mm section cut from dental cotton rolls weighing about 45 mg each. The tested compound dissolved in ethyl alcohol, was absorbed on the pellets before implantation. Fluocinolone acetonide and Dexamethasone-21-acetate was used as comparison products and their activities were conventionally taken equal to 1 for each of the various parameters herein considered. Comparison substance and tested new compounds were absorbed on the pellets at the following scalar dosage per each pellet: 20-2-0.2 mcg/cotton pellet. For the controls the pellets were soakened in the pure solvent (ethyl alcohol) and then dried as usually.
(§3) In the following Table 1. there are reported the achieved results with regard to the anti-inflammatory activity, the thymolitic activity, and the LD50 values: […]

For data set [2], the system named is granuloma formation. Description: cotton granuloma assay, topical anti-inflammatory activity. The format is in vivo, rat (adult female albino, Sprague-Dawley). The settings on record: 20-2-0.2 mcg/cotton pellet, 7 days; for Anti-inflammatory activity (*): (*) in comparison with Fluocinolone acetonide; for Anti-inflammatory activity (**): (**) in comparison with Dexamethasone 21-acetate. More on the design: key: relative potency; comparison steroid = 1. The protocol:
as §1, §2
After seven days the animals were sacrified. The pellets were removed and the exudate weights were recorded as a measure of the granuloma formation. The degree of granuloma inhibition reflects the anti-inflammatory activity of the tested compounds.
as §3

Data set [3] is described as follows: LD50 (acute toxicity). The settings on record: in vivo, topical or ocular; Table 1, topical administration.
Source text: as §3

Data set [4] deals with vasoconstrictive activity, human volunteers. The data set is described as follows: vasoconstrictive activity in human volunteers (McKenzie and Stoughton's test or Falconi and Rossi's Paper-Patch Test). The settings on record: for vasoconstrictive activity (in words): human volunteers. The format is in vivo. An excerpt:
Some of the esters have been tested in human volunteers for their vasoconstrictive activity using the McKenzie and Stoughton's test (1) or the Falconi and Rossi's Paper-Patch Test (2) in comparison with a known anti-inflammatory corticosteroid, namely fluocinolone acetonide.
In the first experiment 2 dilutions of 4 esters have been tested on volunteers and 10 dilutions have been applied for each subject.
1. Mc Kenzie, A.W., Stoughton, R.B.: Method for comparing percutaneous
absorption of Steroids. Arch. Derm. 86, 608, 1962.
vasoconstrictive activity of Corticosteroids. Arch. Derm. 105, 856, 1972.

The mark [5] stands for this setting: Table 2a, second trial, dilution 10^3.
The mark [6] stands for this setting: Table 2a, second trial, dilution 10^4.
The mark [7] stands for this setting: Table 2a, second trial, dilution 10^5.
Setting [8] is: Table 2a, second trial, dilution 10^6.
Setting [9] is: Table 2, first trial, dilution 10^4.
Where [10] appears, read: Table 2, first trial, dilution 10^5.
[11] abbreviates: topical, relative, comparison product conventionally equal to 1 (Dexamethasone 21-acetate = 1).

Structures are written as SMILES. Where only a bound is given, the exact number is not on record here.

In turn, `CC(=O)OCC(=O)[C@@]1(O)[C@H](C)C[C@H]2[C@@H]3CCC4=CC(=O)C=C[C@]4(C)[C@@]3(F)[C@@H](O)C[C@@]21C` [Dexamethasone 21-acetate, reference compound] yielded a Thymolytic activity in data set [1] (rat, in vivo) of 1. In data set [2], the “Anti-inflammatory activity (*)” value is on record as 1 and the “Anti-inflammatory activity (**)” value turned out to be 1. The LD50 (in general, the dose at which mortality reaches 50%) in data set [3] was found to be 259 mg/kg.
Turning to `CC1(C)O[C@@H]2C[C@H]3[C@@H]4CCC5=CC(=O)C=C[C@]5(C)[C@@]4(F)[C@@H](O)C[C@]3(C)[C@]2(C(=O)CO)O1` [Triamcinolone acetonide, reference compound], the “% Positive” value in data set [4] (setting [5]) stood at 100%; in data set [4] (setting [6]), 100%; in data set [4] (setting [7]), 60%; in data set [4] (setting [8]) it was 40%. The “Results (Positive/No. of subjects)” value in data set [4] (setting [5]) is given as 5/5; in data set [4] (setting [6]) it was 5/5; in data set [4] (setting [7]) it was 3/5; in data set [4] (setting [8]), 2/5.
In the case of `CC(C)(C)C(=O)OCC(=O)[C@@]12NN=C[C@@H]1C[C@H]1[C@@H]3C[C@H](F)C4=CC(=O)C=C[C@]4(C)[C@@]3(F)[C@@H](O)C[C@@]12C` [16-17-M-Dif-Piv, 16α,17α-Isopyrazolino-1,4-pregnadiene-6α,9α-difluoro-11β,21-diol-3,20-dione-21-pivalate], the “% Positive” value is 20% in data set [4] (setting [9]) and 0% in data set [4] (setting [10]). The “Results (Positive/No. of subjects)” value is reported as 1/5 in data set [4] (setting [9]) and 0/5 in data set [4] (setting [10]).
Compound `CC(=O)OCC(=O)[C@@]12N=NC[C@@H]1C[C@H]1[C@@H]3C[C@H](F)C4=CC(=O)C=C[C@]4(C)[C@@]3(F)[C@@H](O)C[C@@]12C` [Pyr Dif-AC, 16α,17α-Pyrazolino-1,4-pregnadiene-6α,9α-difluoro-11β,21-diol-3,20-dione 21-acetate] gave a Thymolytic activity in data set [1] (setting [11]) of 0.52. In data set [2], the “Anti-inflammatory activity (*)” value is above 10 and the “Anti-inflammatory activity (**)” value is above 20. In data set [3], this compound showed a median lethal dose (LD50) of 439 mg/kg.
As to `CC(=O)OCC(=O)[C@@]12N=NC[C@@H]1C[C@H]1[C@@H]3CCC4=CC(=O)C=C[C@]4(C)[C@@]3(F)[C@@H](O)C[C@@]12C` [Pyr-F-Ac, 16α,17α-Pyrazolino-1,4-pregnadiene-9α-fluoro-11β,21-diol-3,20-dione-21-acetate], the Thymolytic activity in data set [1] (setting [11]) is reported as 0.14. In data set [2], the “Anti-inflammatory activity (*)” value was at least 10 and the “Anti-inflammatory activity (**)” value is at least 20. Besides, the LD50 in data set [3] was determined as 721 mg/kg.
Regarding `CCCCC(=O)OCC(=O)[C@@]12NN=C[C@@H]1C[C@H]1[C@@H]3CCC4=CC(=O)C=C[C@]4(C)[C@@]3(F)[C@@H](O)C[C@@]12C` [Example 16-17-M-F-Va, 16α,17α-Isopyrazolino-1,4-pregnadiene-9α-fluoro-11β,21-diol-3,20-dione-21-valerate], in data set [4] (setting [9]), the “% Positive” value came out at 100% and the “Results (Positive/No. of subjects)” value was 5/5. Besides, in data set [4] (setting [10]), the “% Positive” value is given as 40% and the “Results (Positive/No. of subjects)” value is reported as 1/5.
`CCCCC(=O)OCC(=O)[C@@]12NN=C[C@@H]1C[C@H]1[C@@H]3C[C@H](F)C4=CC(=O)C=C[C@]4(C)[C@@]3(F)[C@@H](O)C[C@@]12C` [16-17-M-Dif-Va, 16α,17α-Isopyrazolino-1,4-pregnadiene-6α,9α-difluoro-11β,21-diol-3,20-dione-21-valerate]: the “% Positive” value in data set [4] (setting [9]) was 100%; in data set [4] (setting [10]) it was 40%; in data set [4] (setting [5]), 100%; in data set [4] (setting [6]), 80%; in data set [4] (setting [7]), 80%; in data set [4] (setting [8]), 60%. The “Results (Positive/No. of subjects)” value is given as 5/5 in data set [4] (setting [9]); 2/5 in data set [4] (setting [10]); 5/5 in data set [4] (setting [5]); 4/5 in data set [4] (setting [6]); 4/5 in data set [4] (setting [7]); 3/5 in data set [4] (setting [8]). Also, the “vasoconstrictive activity (in words)” value is “showed the best activity in the first trial” in data set [4] and “showed the same potency as fluocinolone acetonide even at the lower concentrations employed in the trials” in data set [4] (listed as 16-17-Dif-Va).
On to `CC(=O)OCC(=O)[C@@]12NN=C[C@@H]1C[C@H]1[C@@H]3C[C@H](F)C4=CC(=O)C=C[C@]4(C)[C@@]3(F)[C@@H](O)C[C@@]12C` [16,17 M Dif-AC, 16α,17α-Isopyrazolino-1,4-pregnadiene-6α,9α-difluoro-11β,21-diol-3,20-dione 21-acetate], for which, in data set [1] (setting [11]), the Thymolytic activity amounted to 0.26. Besides, in data set [2], the “Anti-inflammatory activity (*)” value is above 10 and the “Anti-inflammatory activity (**)” value is on record as above 20. In data set [3], this compound showed an LD50 of 1120 mg/kg.
Take `CCCC(=O)OCC(=O)[C@@]12NN=C[C@@H]1C[C@H]1[C@@H]3C[C@H](F)C4=CC(=O)C=C[C@]4(C)[C@@]3(F)[C@@H](O)C[C@@]12C` [Example 16-17-Dif-Bu, 16α,17α-Isopyrazolino-1,4-pregnadiene-6α,9α-difluoro-11β,21-diol-3,20-dione-21-butyrate]: in data set [4] (setting [9]), the “% Positive” value is 60% and the “Results (Positive/No. of subjects)” value is given as 3/5. Also, in data set [4] (setting [10]), the “% Positive” value worked out at 20% and the “Results (Positive/No. of subjects)” value is given as 1/5.
As for `CC(=O)OCC(=O)[C@@]12NN=C[C@@H]1C[C@H]1[C@@H]3CCC4=CC(=O)C=C[C@]4(C)[C@@]3(F)[C@@H](O)C[C@@]12C` [16-17 MF-AC, 16α,17α-Isopyrazolino-1,4-pregnadiene-9α-fluoro-11β,21-diol-3,20-dione-21-acetate], in data set [1] (setting [11]), the Thymolytic activity is 0.02. In data set [2], the “Anti-inflammatory activity (*)” value is recorded as above 10 and the “Anti-inflammatory activity (**)” value was above 20. For the same compound, in data set [3], the LD50 is above 2000 mg/kg.
In turn, `CC1(C)O[C@@H]2C[C@H]3[C@@H]4C[C@H](F)C5=CC(=O)C=C[C@]5(C)[C@@]4(F)[C@@H](O)C[C@]3(C)[C@]2(C(=O)CO)O1` [Fluocinolone acetonide, reference compound] returned a Thymolytic activity in data set [1] (rat, in vivo) of 0.83. For the same compound, in data set [2], the “Anti-inflammatory activity (*)” value came to 2 and the “Anti-inflammatory activity (**)” value turned out to be 2. For the same compound, in data set [4] (setting [9]), the “% Positive” value came to 100% and the “Results (Positive/No. of subjects)” value was 5/5. Also, in data set [4] (setting [10]), the “% Positive” value came out at 60% and the “Results (Positive/No. of subjects)” value is listed as 3/5. The compound also returned an LD50 in data set [3] of 166 mg/kg.
